Laboratory results reported in US20250177396A1, “POLO-LIKE KINASE 4 (PLK4) INHIBITORS, PHARMACEUTICAL COMPOSITIONS, METHODS OF PREPARATION AND USES THEREOF” (Repare Therapeutics Inc., priority 2022, published 2025).
pIC50: −log10 of the molar value.

Target: T1, PLK4 (Homo sapiens, UniProt O00444)
T1 construct: expressed in transfected cells; host or cells: HEK293 T cells (ATCC CRL-3216)
T1 sequence (O00444 1-970): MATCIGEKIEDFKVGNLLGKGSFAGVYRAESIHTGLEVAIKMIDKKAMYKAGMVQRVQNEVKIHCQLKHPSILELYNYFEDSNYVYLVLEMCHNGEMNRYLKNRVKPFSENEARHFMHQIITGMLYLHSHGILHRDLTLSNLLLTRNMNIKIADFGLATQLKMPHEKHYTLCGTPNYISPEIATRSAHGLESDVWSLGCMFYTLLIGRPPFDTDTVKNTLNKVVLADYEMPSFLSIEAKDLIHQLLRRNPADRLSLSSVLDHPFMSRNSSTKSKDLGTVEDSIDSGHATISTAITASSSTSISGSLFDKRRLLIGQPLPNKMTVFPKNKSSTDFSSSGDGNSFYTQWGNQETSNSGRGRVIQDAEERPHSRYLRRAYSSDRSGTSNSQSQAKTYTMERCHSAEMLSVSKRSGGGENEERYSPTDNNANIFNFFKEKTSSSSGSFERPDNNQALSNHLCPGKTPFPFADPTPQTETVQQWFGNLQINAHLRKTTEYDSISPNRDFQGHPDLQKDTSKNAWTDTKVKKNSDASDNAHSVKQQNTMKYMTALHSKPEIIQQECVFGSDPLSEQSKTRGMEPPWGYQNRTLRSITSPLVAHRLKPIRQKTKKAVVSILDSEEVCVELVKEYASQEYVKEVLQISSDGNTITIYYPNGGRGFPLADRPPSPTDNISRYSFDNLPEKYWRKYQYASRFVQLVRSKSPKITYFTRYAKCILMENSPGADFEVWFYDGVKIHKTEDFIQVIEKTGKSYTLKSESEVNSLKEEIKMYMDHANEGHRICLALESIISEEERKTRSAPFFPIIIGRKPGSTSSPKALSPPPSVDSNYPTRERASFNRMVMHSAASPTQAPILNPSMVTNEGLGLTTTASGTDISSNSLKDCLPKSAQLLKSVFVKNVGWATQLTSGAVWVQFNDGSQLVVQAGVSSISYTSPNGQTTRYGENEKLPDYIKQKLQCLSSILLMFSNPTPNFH
Test: PLK4 NanoBRET target engagement assay
Format: binding
Conditions: HEK293 T cells transfected with PLK4 NanoLuc fusion vector; K-5 tracer; 2 hrs incubation
Method in brief: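 HEK293T cells transiently expressing PLK4-NanoLuc, plated at 17000 cells/well with K-5 tracer and compound, incubated 2 h at 37 °C/5% CO2. After substrate/inhibitor mix, 610/450 nm emission ratio ×1000 gave mBRET; IC50 from 4-parameter fit.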

Structure (SMILES)	pIC50
Cc1cc(Nc2nc(N(C)c3c(F)cc(S(C)(=O)=O)cc3F)nc(N3CCn4nccc4C3)c2C2CC2)n[nH]1 [Compound 250]	7.68
Cc1cc(Nc2nc(N(C)c3c(F)cc(S(C)(=O)=O)cc3F)nc(-c3cn(C)nc3C(N)=O)c2C2CC2)n[nH]1 [Compound 251]	6.51
Cc1cc(Nc2nc(N(C)c3c(F)cc(S(C)(=O)=O)cc3F)nc(-c3cn(C)nc3C(=O)N(C)C)c2C2CC2)n[nH]1 [Compound 252]	7.32
Cc1cc(Nc2nc(N(C)c3c(F)cc(S(C)(=O)=O)cc3F)nc(-c3cnn([C@H]4C[C@H](O)C4)c3)c2C2CC2)n[nH]1 [Compound 253]	8.15
Cc1cc(Nc2nc(N(C)c3c(F)cc(S(C)(=O)=O)cc3F)nc(-c3cnn([C@H]4C[C@@H](O)C4)c3)c2C2CC2)n[nH]1 [Compound 254]	8.40
COC1CCc2ncc(-c3nc(N(C)c4c(F)cc(S(C)(=O)=O)cc4F)nc(Nc4cc(C)[nH]n4)c3C3CC3)n2C1 (stereo not shown) [Compound 255]	8.70
CN(c1nc(Nc2cc(C3CC3)[nH]n2)c(C2CC2)c(-c2cnn(C)c2C(N)=O)n1)c1c(F)cc(S(C)(=O)=O)cc1F [Compound 256]	8.40
Cc1cc(Nc2nc(N(C)c3c(F)cc(S(C)(=O)=O)cc3F)nc(-c3cn(C4CC(O)C4)cn3)c2C2CC2)n[nH]1 (stereo not shown) [Compound 257]	7.48
CCc1cc(Nc2nc(N(C)c3c(F)cc(S(C)(=O)=O)cc3F)nc(-c3cnn(C)c3)c2C2CC2)n[nH]1 [Compound 258]	8.30
Cc1cc(Nc2nc(N(C)c3c(F)cc(S(C)(=O)=O)cc3F)nc(-c3cn(CCOC(F)(F)F)c(C)n3)c2C2CC2)n[nH]1 [Compound 259]	8.15
Cc1cc(Nc2nc(N(C)c3c(F)cc(S(C)(=O)=O)cc3F)nc(-c3cnn(C)c3C(=O)N(C)C)c2C2CC2)n[nH]1 [Compound 260]	8.30
CNC(=O)c1c(-c2nc(N(C)c3c(F)cc(S(C)(=O)=O)cc3F)nc(Nc3cc(C)[nH]n3)c2C2CC2)cnn1C [Compound 261]	8.10
Cc1cc(Nc2nc(N(C)c3c(F)cc(C(C)(C)O)cc3F)nc(-c3cn(C)cn3)c2C2CC2)n[nH]1 [Compound 262]	7.74
Cc1cc(Nc2nc(N(C)c3c(F)cc(S(C)(=O)=O)cc3F)nc(-c3cnn(C)c3C(=O)N3CCC3)c2C2CC2)n[nH]1 [Compound 263]	8.05
Cc1cc(Nc2nc(N(C)c3c(F)cc(S(C)(=O)=O)cc3F)nc(-c3cnn(C)c3C(=O)N3CC(F)(F)C3)c2C2CC2)n[nH]1 [Compound 264]	7.60
CN(c1nc(Nc2cc(C3CC3)[nH]n2)c(C2CC2)c(-c2ccn(CCO)n2)n1)c1c(F)cc(S(C)(=O)=O)cc1F [Compound 265]	8.30
Cc1cc(Nc2nc(N(C)c3c(F)cc(S(C)(=O)=O)cc3F)nc(-c3cnc4cccnn34)c2C2CC2)n[nH]1 [Compound 267]	8.22
Cc1cc(Nc2nc(N(C)c3c(F)cc(S(C)(=O)=O)cc3F)nc(N3CC4(C3)CC(C)(O)C4)c2C2CC2)n[nH]1 [Compound 268]	7.32
Cc1cc(Nc2nc(N(C)c3c(F)cc(S(C)(=O)=O)cc3F)nc(N3CCc4c(ncn4C)C3)c2C2CC2)n[nH]1 [Compound 269]	7.85
Cc1cc(Nc2nc(N(C)c3c(F)cc(S(C)(=O)=O)cc3F)nc(N3Cc4cnn(C)c4C3)c2C2CC2)n[nH]1 [Compound 271]	7.22
COCc1nc(-c2nc(N(C)c3c(F)cc(S(C)(=O)=O)cc3F)nc(Nc3cc(C4CC4)[nH]n3)c2C2CC2)cn1C [Compound 272]	8.52
CN(c1nc(Nc2cc(C3CC3)[nH]n2)c(C2CC2)c(-c2cn3c(n2)COCC3)n1)c1c(F)cc(S(C)(=O)=O)cc1F [Compound 273]	8.70

Structure (SMILES)	pIC50
Cc1cc(Nc2nc(N(C)c3c(F)cc(S(C)(=O)=O)cc3F)nc(-c3ncn(C)c3C(=O)N(C)C)c2C2CC2)n[nH]1 [Compound 274]	5.51
COCCn1cc(-c2nc(N(C)c3c(F)cc(S(C)(=O)=O)cc3F)nc(Nc3cc(C4CC4)[nH]n3)c2C2CC2)c(C)n1 [Compound 276]	8.40
COCCn1ncc(-c2nc(N(C)c3c(F)cc(S(C)(=O)=O)cc3F)nc(Nc3cc(C4CC4)[nH]n3)c2C2CC2)c1C [Compound 277]	8.52
CN(c1nc(Nc2cc(C(F)(F)F)[nH]n2)c(C2CC2)c(-c2cnn(C)c2)n1)c1c(F)cc(S(C)(=O)=O)cc1F [Compound 278]	7.22
CN(C)C(=O)c1c(-c2nc(N(C)c3c(F)cc(S(C)(=O)=O)cc3F)nc(Nc3cc(C4CC4)[nH]n3)c2C2CC2)cnn1C [Compound 280]	9.00
Cc1cc(Nc2nc(N(C)c3c(F)cc(S(C)(=O)=O)cc3F)nc(-c3nn(C)cc3C(N)=O)c2C2CC2)n[nH]1 [Compound 281]	6.47
Cc1cc(Nc2nc(N(C)c3c(F)cc(S(C)(=O)=O)cc3F)nc(N3CCc4ncn(C)c4C3)c2C2CC2)n[nH]1 [Compound 282]	8.22
Cc1cc(Nc2nc(N(C)c3c(F)cc(S(C)(=O)=O)cc3F)nc(-c3ncn(C)c3C)c2C2CC2)n[nH]1 [Compound 283]	7.35
CN(c1nc(Nc2n[nH]c3c2CCC3)c(C2CC2)c(-c2cnn(C)c2)n1)c1c(F)cc(S(C)(=O)=O)cc1F [Compound 285]	6.82
Cc1cc(Nc2nc(N(C)c3c(F)cc(S(C)(=O)=O)cc3F)nc(-c3cc4[nH]c(=O)ccn4n3)c2C2CC2)n[nH]1 [Compound 286]	7.62
CN(c1nc(Nc2cc(C3CC3)[nH]n2)c(C2CC2)c(-c2cn(C)c(C#N)n2)n1)c1c(F)cc(S(C)(=O)=O)cc1F [Compound 287, 4-(5-cyclopropyl-6-((5-cyclopropyl-1H-pyrazol-3-yl)amino)-2-((2,6-difluoro-4-(methylsulfonyl)phenyl)(methyl)amino)pyrimidin-4-yl)-1-methyl-1H-imidazole-2-carbonitrile]	8.22
Cc1cc(Nc2nc(N(C)c3c(F)cc(S(C)(=O)=O)cc3F)nc(-c3cnn4ccncc34)c2C2CC2)n[nH]1 [Compound 288]	7.66
Cc1cc(Nc2nc(N(C)c3c(F)cc(S(C)(=O)=O)cc3F)nc(-c3cnn(C)c3C(=O)O)c2C2CC2)n[nH]1 [Compound 289]	6.18
COc1cc(Nc2nc(N(C)c3c(F)cc(S(C)(=O)=O)cc3F)nc(-c3cnn(C)c3)c2C2CC2)n[nH]1 [Compound 292]	7.62
Cc1cc(Nc2nc(N(C)c3c(F)cc(S(C)(=O)=O)cc3F)nc(-c3cn(C)c(C(=O)N(C)C)n3)c2C2CC2)n[nH]1 [Compound 293]	7.85
Cc1cc(Nc2nc(N(C)c3c(F)cc(S(C)(=O)=O)cc3F)nc(-c3cnn(C)c3C(C)(C)O)c2C2CC2)n[nH]1 [Compound 294]	8.05
CN(c1nc(Nc2cc(C#N)[nH]n2)c(C2CC2)c(-c2cnn(C)c2)n1)c1c(F)cc(S(C)(=O)=O)cc1F [Compound 295]	7.12
CN(c1nc(Nc2cc(C3CC3)[nH]n2)c(C2CC2)c(-c2cnn(CC(C)(C)O)c2)n1)c1c(F)cc(S(C)(=O)=O)cc1F [Compound 297]	7.85
CN(c1nc(Nc2cc(C3CC3)[nH]n2)c(C2CC2)c(-c2cn(C)cn2)n1)c1cc(F)c(S(C)(=O)=O)cc1F [Compound 298]	7.96
Cc1cc(Nc2nc(N(C)c3c(F)cc(S(C)(=O)=O)cc3F)nc(N3CCO[C@H](C(F)(F)F)C3)c2C2CC2)n[nH]1 [Compound 299]	6.74
Cc1cc(Nc2nc(N(C)c3c(F)cc(S(C)(=O)=O)cc3F)nc(N3CCO[C@@H](C(F)(F)F)C3)c2C2CC2)n[nH]1 [Compound 300]	6.82
